Data set [1] relates to L 1210/Ref (vinca-refractory) mouse lymphoid leukemia. The data set is described as follows: Average survival prolongation and tumor-inhibiting effect, L 1210/Ref (vinca-refractory) lymphoid leukemia, i.p. Format: in vivo, mouse (BDF1 mice). Conditions: for On the limit-day (days 36 to day 40): lives / On the limit-day (days 36 to day 40): tumor-free / T/c × 100 / Average survival period, treated: 7 treatments; for Average survival period, treated: control 8.0 days. The procedure: (§1) The pharmacological tests were performed on transplantable tumors of rats and mice. The effects on L 1210/VS(vinca-sensitive) mouse lymphoid leukemia and L 1210/Ref (vinca-refractory) mouse lymphoid leukemia were tested on BDF1 mice, the effects on Ehrlich ascites carcinomatous tumors and S 37 ascites sarcomatous tumors were examined on Swiss mice, whereas the effects on Novikoff hepatoma were examined on Wistar rats.
(§2) The 4-deacetoxy-vinblastine sulfate was dissolved in physiological saline and the solution was administered intraperitoneally into the animals to be tested. In the tests the average prolongation of survival period and the tumor-inhibiting effect were examined in relation to the untreated controls. In the Table the symbol T/c represents the ratio of treated animals to the controls, and the term "number of limit-days" means the fourfold of the average survival period observed in the control group.

In data set [2] the test system is Novikoff hepatoma. The data set is described as follows: Average survival prolongation and tumor-inhibiting effect, Novikoff hepatoma, i.p. To be noted: for On the limit-day (days 36 to day 40): lives / On the limit-day (days 36 to day 40): tumor-free / T/c × 100 / Average survival period, treated: once a day, 8 treatments. Type of data set: in vivo, rat (Wistar rats). The procedure:
as §1, §2

Data set [3] concerns transplantable tumors of rats and mice. The data set is described as follows: Tumor-inhibiting effect on transplantable tumors of rats and mice. Format: in vivo. The procedure:
as §1, §2

Data set [4] in a line: Toxicity (LD50, i.p., mice). To be noted: mouse, in vivo, ip.
Data set [5] has as its system L 1210/VS (vinca-sensitive) mouse lymphoid leukemia. Nature of the data set: Average survival prolongation and tumor-inhibiting effect, L 1210/VS (vinca-sensitive) lymphoid leukemia, i.p. Type of data set: in vivo, mouse (BDF1 mice). The procedure:
as §1, §2

Data set [6] has as its system Ehrlich ascites carcinoma. The data set is described as follows: Average survival prolongation and tumor-inhibiting effect, Ehrlich ascites carcinoma, i.p. To be noted: 3.0 mg/kg i.p., once a day, 9 treatments. Format: in vivo, mouse (Swiss mice). Here is the method: as §1, §2
Data set [7] has as its system S 37 ascites sarcoma. The data set is described as follows: Average survival prolongation and tumor-inhibiting effect, S 37 ascites sarcoma, i.p. Type of data set: in vivo, mouse (Swiss mice). Conditions: once a day, 8 treatments; for Average survival period, treated: control 18.2 days. The procedure: as §1, §2
Data set [8] concerns HK/Ly ascites lymphoma. Nature of the data set: Average survival prolongation and tumor-inhibiting effect, HK/Ly ascites lymphoma, i.p. Format: in vivo. To be noted: once a day, 8 treatments; for Average survival period, treated: control 14.4 days. The procedure:
as §2

A short description of data set [9]: Neurotoxicity accompanied with paralytic symptoms. Type of data set: in vivo. To be noted: during administration.
Data set [10] relates to mice. Nature of the data set: Toxicity (LD50, i.p., mice).
For data set [11], the system named is tumors resistant towards the cytostatic agents known before. Conditions: Hungarian Patent specification No. 165,986; cited from earlier work.
For data set [12] the following is noted: known vinca alkaloids; cited from earlier work.
A short description of data set [13]: in vivo. Conditions: mouse, ip.
[14] abbreviates: 0.9 mg/kg i.p., once a day, 7 treatments.
[15] abbreviates: 1.8 mg/kg i.p., once a day, 7 treatments.
[16] abbreviates: 2.0 mg/kg i.p., once a day, 16 treatments.
Setting [17] is: 4.0 mg/kg i.p., once a day, 16 treatments.
The mark [18] stands for this setting: 4.0 mg/kg i.p., once in every two days, 8 treatments.
Where [19] appears, read: 4.0 mg/kg i.p., once in every two days, 11 treatments.
The mark [20] stands for this setting: 5.0 mg/kg i.p., once in every two days, 8 treatments.
[21] abbreviates: 6.0 mg/kg i.p., once in every two days, 8 treatments.
Where [22] appears, read: 4.0 mg/kg i.p., once in every two days.

Structures can show the parent of a compound that is named as a salt.

On to `CC[C@]1(O)C[C@@H]2CN(CCc3c([nH]c4ccccc34)[C@@](C(=O)OC)(c3cc4c(cc3OC)N(C)[C@@H]3[C@]45CCN4CC=C[C@@](CC)(C[C@]3(O)C(=O)OC)[C@H]45)C2)C1` [4-Deacetoxy-vinblastine, 4-deacetoxy-vinblastine], for which, in [1] (mouse, in vivo), the “sensitivity of L 1210/Ref leukemia” value is listed as “not sensitive”. In data set [2] (relative to the other transplanted tumors), the “inhibiting effect on Novikoff hepatoma” value is given as “most intensive”. Besides, the “inhibiting effect on all the other transplanted tumors” value in [3] (all transplanted tumors other than L 1210/Ref) is “significant dosage-dependent inhibiting effect”. Besides, in data set [4], the LD50 was > 23 mg/kg.

On to `CC[C@]1(O)C[C@@H]2CN(CCc3c([nH]c4ccccc34)[C@@](C(=O)OC)(c3cc4c(cc3OC)N(C)[C@@H]3[C@]45CCN4CC=C[C@@](CC)(C[C@]3(O)C(=O)OC)[C@H]45)C2)C1` [4-deacetoxy-vinblastine sulfate, 4-Deacetoxy-vinblastine sulfate], for which the “On the limit-day (days 36 to day 40): lives” value (“On the limit-day … lives” below) in data set [5] (setting [14]), in [5] (setting [15]), in [5] (setting [16]), in data set [5] (setting [17]), in data set [5] (setting [18]) and in data set [5] (setting [19]) was 0/6 in each case. For the same compound, the “On the limit-day … lives” value in [5] (setting [20]) is listed as 0/6; in [5] (setting [21]), 0/6; in data set [1] (2.0 mg/kg i.p., once a day) it was 0/6; in data set [1] (4.0 mg/kg i.p., once a day) it was 0/6; in data set [1] (setting [22]) it was 0/6; in [6] it was 10/10. The “On the limit-day … lives” value in data set [7] (1.8 mg/kg i.p.) was 6/8; in data set [7] (2.7 mg/kg i.p.) it was 7/10; in data set [2] (0.5 mg/kg i.p.), 0/6; in [2] (1.0 mg/kg i.p.), 1/6; in [2] (1.5 mg/kg i.p.) it was 2/6; in [8] (2.0 mg/kg i.p.) it was 0/10. Besides, the results for the “On the limit-day … lives” value in data set [8] (4.0 mg/kg i.p.) and in data set [8] (6.0 mg/kg i.p.) were 6/10 and 0/10, respectively. In addition, the “On the limit-day (days 36 to day 40): tumor-free” value (from here on “On the limit-day … tumor-free”) in data set [5] (setting [14]), in data set [5] (setting [15]), in data set [5] (setting [16]), in [5] (setting [17]), in data set [5] (setting [18]) and in data set [5] (setting [19]) was 0/6 each time. Besides, the “On the limit-day … tumor-free” value in [5] (setting [20]) is listed as 0/6; in [5] (setting [21]), 0/6; in data set [1] (2.0 mg/kg i.p., once a day) it was 0/6; in data set [1] (4.0 mg/kg i.p., once a day), 0/6; in data set [1] (setting [22]) it was 0/6; in data set [6], 6/10. Also, the “On the limit-day … tumor-free” value was 6/8 in data set [7] (1.8 mg/kg i.p.); 7/10 in data set [7] (2.7 mg/kg i.p.); 0/6 in data set [2] (0.5 mg/kg i.p.); 1/6 in [2] (1.0 mg/kg i.p.); 0/6 in data set [2] (1.5 mg/kg i.p.); 0/10 in [8] (2.0 mg/kg i.p.). For the same compound, the “On the limit-day … tumor-free” value in [8] (4.0 mg/kg i.p.) and in data set [8] (6.0 mg/kg i.p.) was 0/10 throughout. Moreover, the “T/c × 100” value came out at 128 in data set [5] (setting [14]); 128 in data set [5] (setting [15]); 238 in data set [5] (setting [16]); 269 in [5] (setting [17]); 213 in [5] (setting [18]); 267 in data set [5] (setting [19]). The “T/c × 100” value in data set [5] (setting [20]) is given as 251; in data set [5] (setting [21]), 291; in [1] (2.0 mg/kg i.p., once a day) it was 119; in data set [1] (4.0 mg/kg i.p., once a day), 144; in data set [1] (setting [22]), 146; in data set [6], 174. For the same compound, the “T/c × 100” value in [7] (1.8 mg/kg i.p.) stood at 376; in [7] (2.7 mg/kg i.p.), 373; in [2] (0.5 mg/kg i.p.), 126; in data set [2] (1.0 mg/kg i.p.) it was 338; in data set [2] (1.5 mg/kg i.p.) it was 317; in [8] (2.0 mg/kg i.p.) it was 334. Moreover, the “T/c × 100” value is recorded as 382 in [8] (4.0 mg/kg i.p.) and 328 in [8] (6.0 mg/kg i.p.). Besides, the “Average survival period, treated” value in data set [5] (0.9 mg/kg i.p., once a day, 7 treatments, control 8.8 days) turned out to be 11.5 days; in data set [5] (1.8 mg/kg i.p., once a day, 7 treatments, control 8.8 days), 11.3 days; in [5] (2.0 mg/kg i.p., once a day, 16 treatments, control 10.3 days), 24.5 days; in [5] (4.0 mg/kg i.p., once a day, 16 treatments, control 10.3 days), 27.7 days; in [5] (4.0 mg/kg i.p., once in every two days, 8 treatments, control 8.3 days), 17.7 days; in [5] (4.0 mg/kg i.p., once in every two days, 11 treatments, control 10.3 days) it was 27.5 days. Further, the “Average survival period, treated” value was 20.8 days in data set [5] (5.0 mg/kg i.p., once in every two days, 8 treatments, control 8.3 days); 24.2 days in [5] (6.0 mg/kg i.p., once in every two days, 8 treatments, control 8.3 days); 9.5 days in data set [1] (2.0 mg/kg i.p., once a day); 11.5 days in [1] (4.0 mg/kg i.p., once a day); 11.7 days in data set [1] (setting [22]); 30 days in data set [6] (control 17.4 days). For the same compound, the “Average survival period, treated” value was 68.5 days in data set [7] (1.8 mg/kg i.p.); 67.9 days in data set [7] (2.7 mg/kg i.p.); 10.3 days in [2] (0.5 mg/kg i.p., control 8.2 days); 27.7 days in data set [2] (1.0 mg/kg i.p., control 8.2 days); 24.7 days in [2] (1.5 mg/kg i.p., control 7.8 days); 48.1 days in [8] (2.0 mg/kg i.p.). The “Average survival period, treated” value in data set [8] (4.0 mg/kg i.p.) was 55.0 days; in data set [8] (6.0 mg/kg i.p.), 47.2 days. In addition, in [3] (compared with vinblastine), the “tumor-inhibiting effects compared with vinblastine” value is “roughly identical with those of vinblastine”. Further, the “Neurotoxicity accompanied with paralytic symptoms” value in [9] is given as “does not appear at all”. For the same compound, the “toxicity compared with vinblastine” value in [10] (compared with vinblastine) is listed as “far less toxic than vinblastine”.

As to `CC[C@]12CN3CCc4c([nH]c5ccccc45)[C@@](C(=O)OC)(c4cc5c(cc4OC)N(C=O)[C@H]4[C@@](O)(C(=O)OC)[C@H](OC(C)=O)[C@]6(CC)C=CCN7CC[C@]54[C@@H]76)C[C@@H](C3)[C@H]1O2` [N-Formyl-leurosine, reference compound], the “growth inhibition of tumors resistant towards the cytostatic agents known before” value in [11] is “inhibits the growth of tumors resistant towards the cytostatic agents known before”. In data set [10] (i.p., mice), the LD50 is 29.0 mg/kg.

`CC[C@]1(O)C[C@@H]2CN(CCc3c([nH]c4ccccc34)[C@@](C(=O)OC)(c3cc4c(cc3OC)N(C)[C@H]3[C@@](O)(C(=O)OC)[C@H](OC(C)=O)[C@]5(CC)C=CCN6CC[C@]43[C@@H]65)C2)C1` [Vinblastine, vinblastine]: the “Neurotoxicity accompanied with paralytic symptoms (known side-effect)” value in data set [12] is listed as “characteristic adverse side-effect”. In data set [13], this compound returned an LD50 of 7.5 mg/kg.

In the case of `CC[C@]1(O)C[C@H]2CN(CCc3c([nH]c4ccccc34)[C@@](C(=O)OC)(c3cc4c(cc3OC)N(C=O)[C@H]3[C@@](O)(C(=O)OC)[C@H](OC(C)=O)[C@]5(CC)C=CCN6CC[C@]43[C@@H]65)C2)C1` [Vincristine, vincristine, reference compound], in [12], the “Neurotoxicity accompanied with paralytic symptoms (known side-effect)” value is listed as “characteristic adverse side-effect”. For the same compound, the LD50 in data set [4] was found to be 4.2 mg/kg.
